# Experimental data: patent US9345776B2, “Biodegradable polymers with sulfenamide bonds for drug delivery applications” (The University of Iowa Research Foundation, priority 2011, dated 2016)
# Experiments:
# [1] = Degradation of molecule C under neutral conditions, monitored by 1H NMR; format: physicochemical
# Procedure: Kinetics of the degradation of molecule C under neutral conditions (FIG. 2a). Molecule C (363.2 mg, 1.53 mmol) was dissolved in 3.3 mL of CD3OD, from which 0.5 mL (55.1 mg, 232 μmol) was transferred to a NMR tube. After adding an additional 0.5 mL of CD3OD, ^1H NMR spectra were recorded at room temperature every few days. After 33 days, 15% of molecule C degraded to yield N-benzylmethylamine.
# This procedure was also followed but the NMR tube was added to a heat bath at 40° C.
# For the kinetics in C6D6 at room temperature, a solution of molecule C (33.9 mg, 143 μmol) in 0.7 mL of C6D6 was added to a NMR tube and ^1H NMR spectra were recorded every few days for 30 days.
# [2] = Degradation of molecule C with acid in CD3OD, monitored by 1H NMR; format: physicochemical
# Procedure: […] Molecule C (103.5 mg, 436 μmol) was dissolved in 0.94 mL of CD3OD and 0.5 mL (55.1 mg, 232 μmol) was transferred to a NMR tube. […] […] This reaction was too rapid to monitor the kinetics.
# pKa = format: physicochemical; conditions: inferred from partial protonation by benzoic acid in CD3OD
# Solubility in D2O = format: physicochemical
# [3] = pH=7.5, 37° C.; cited from earlier work
"1H NMR spectrum of molecule C (stability in aprotic solvent) ([1]; C6D6, after 30 days)","degradation of molecule C ([1]; C6D6, room temperature, 30 days) [%]","degradation of molecule C ([1]; CD3OD, 40° C., 33 days) [%]","degradation of molecule C ([1]; CD3OD, room temperature, 33 days, no acid) [%]","degradation of molecule C ([2]; five equivalents of benzoic acid, 4 min) [%]","degradation of molecule C ([2]; two molar equivalents of p-toluenesulfonic acid, within four minutes) [%]","degradation of molecule C ([2]; two molar equivalents of trifluoroacetic acid, within four minutes) [%]",solubility in D2O (Solubility in D2O),SMILES,pKa of the protonated sulfenamide (pKa),half-life of the decomposition [3]
unchanged,< 3,27,15,51,> 90,> 90,not soluble,"CCCCCCSNCCc1ccccc1 [Molecule C, N-Benzylmethyl-hexanesulfenamide]",approximately the same pKa as benzoic acid,–
–,–,–,–,–,–,–,–,C=CCS[S+]([O-])CC=C (stereo not shown) [allicin],–,approximately 2 days
